{"source": "patent US9180175B2", "about": "“Methods of use for a natural Thomsen-Friedenreich disaccharide compound” (UNIVERSITY OF MARYLAND, BALTIMORE, priority 2011, dated 2015)", "key": {"gal3 [1]": {"molecular_target": "T1, gal3 (Homo sapiens, UniProt P17931)", "T1 construct": "made in house", "T1 sequence (P17931 whole entry)": "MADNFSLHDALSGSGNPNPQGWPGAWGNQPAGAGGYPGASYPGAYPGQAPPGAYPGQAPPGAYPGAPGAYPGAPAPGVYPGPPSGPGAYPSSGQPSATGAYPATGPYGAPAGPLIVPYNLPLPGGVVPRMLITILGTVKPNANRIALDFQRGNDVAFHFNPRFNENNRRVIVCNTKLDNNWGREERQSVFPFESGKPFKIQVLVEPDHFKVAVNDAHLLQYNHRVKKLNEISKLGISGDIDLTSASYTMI", "assay": "Surface plasmon resonance (Biacore) kinetics and affinity for gal3", "type": "binding", "conditions": "SPR, biotinylated gal3 on chip", "experimental": "The binding kinetics and affinity of a few carbohydrates for gal3 were measured in Surface Plasmon Resonance (SPR)-based binding assays using a Biacore™ T200 instrument (GE Healthcare). Biotinylated gal3 was attached to Biacore Sensor Chip SA (GE Healthcare) according to the instructions. For this purpose, biotinlyated gal3 was diluted into HBS-EP+ (GE Heathcare) to a concentration of 1 μg/mL and captured onto the streptavidin surface to a final level of 1750 RU. A reference surface was prepared with biotin captured onto the streptavidin. […] The binding response of small carbohydrate ligands were measured in Resonance units (RU) in real time at 10 HZ. These carbohydrates were injected for 30 seconds at 50 μL/min, and 30 seconds of dissociation data were collected. […] Raw sensorgram data were reference subtracted and blank subtracted prior to kinetic and affinity analysis. Biacore™ T200 Evaluation software was used for Steady-state affinity analysis and kinetic analysis."}, "gal3 [2]": {"molecular_target": "T1, gal3", "assay": "Solid phase binding-inhibition assay: gal3 binding to asialofetuin", "conditions": "for IC50: read-out: I50 value (converted)", "experimental": "Briefly, asialofetuin (0.5 μg/100 μl/well) in 0.1 M Na2CO3/0.02% NaN3 (pH 9.6) was adsorbed onto the wells of microtiter plates (Immulon; Dynatech Laboratories, Chantilly, Va.) at 37° C. for 3 h, and the bound glycoprotein was fixed with 2% formaldehyde in phosphate-buffered saline (PBS, 10 mM phosphate, 140 mM NaCl, pH 7.5) at 37° C. for 30 min. The plates were washed three times with PBS (azide-free)/0.05% Tween 20, and incubated with the gal3-biotin conjugate (10 ng/100 μl/well for binding assays) or with preincubated mixture of equal volume of conjugate and varying concentrations of test ligands (for binding-inhibition assays). After incubation for 1 h at 4° C., the plates were washed with ice-cold azide-free PBS-Tween 20, and the bound conjugate was allowed to interact with peroxidase labeled streptavidin (0.05 μg/100 μl well) in azide-free PBS-Tween for 1 h at 4° C. The plate was washed with ice-cold azide free PBS-Tween and the bound peroxidase activity was assayed with peroxidase substrate diammonium 2,2′-azinobis(3-ethylbenzothiazoline-6-sulfonate) (KPL, Rockville, Md.) (37). […] After incubation for 2 h on ice, the mix was dialyzed with PBS and purified by affinity chromatography on lactosyl-Sepharose (37). The purified gal3-biotin conjugate was dialyzed with PBS and stored in 1% BSA-50% glycerol at −20° C. until further use. […] O-Glycosidase treatment removes TF-disaccharide from protein (cleaves GalNAc-Ser/Thr linkage)."}, "MOLT-4 cells": {"tested_on": "MOLT-4 cells", "assay": "Gal3-mediated apoptosis of MOLT-4 cells (annexin V)", "type": "cell-based, human"}, "pmel T cells": {"tested_on": "pmel T cells", "assay": "Recombinant gal3-mediated apoptosis of tumor-specific CD8+ (pmel) T cells", "type": "cell-based, mouse"}, "human CD8+ T cells": {"tested_on": "human CD8+ T cells", "assay": "Gal3-mediated apoptosis of human CD8+ T cells (annexin V)", "type": "cell-based", "description": "(§1) Jurkat cells were used for gal3-mediated apoptosis at various concentration of gal3. To investigate gal3-mediated apoptosis of human CD8^+ cells, peripheral blood mononuclear cells (PBMCs) were isolated from chronic leukemia patients using Ficoll-paque density gradient method (39) followed by negative selection of CD8^+ cells with a cocktail of antibodies using a kit (BD Biosciences, MD). The presence of CD8^+ cells in the purified fraction was confirmed by staining cells with anti-CD8 antibody."}, "Jurkat cells": {"tested_on": "Jurkat cells", "assay": "Gal3-mediated apoptosis of Jurkat cells", "type": "cell-based, human", "description": "as §1"}, "HUVEC": {"tested_on": "HUVEC", "assay": "In vitro angiogenesis (tube formation) of HUVEC", "type": "cell-based, human", "conditions": "recombinant gal3 5 μM, number of branching", "experimental": "After 5 h, the microvessel formation was analyzed under phase contrast microscope at the 10× magnification. For quantitation of tube formation, the number of branching was counted in six areas (each […]) of each well and an average value was taken."}, "gal4": {"molecular_target": "T2, gal4 (Homo sapiens, UniProt P56470)", "T2 sequence (P56470 1-323)": "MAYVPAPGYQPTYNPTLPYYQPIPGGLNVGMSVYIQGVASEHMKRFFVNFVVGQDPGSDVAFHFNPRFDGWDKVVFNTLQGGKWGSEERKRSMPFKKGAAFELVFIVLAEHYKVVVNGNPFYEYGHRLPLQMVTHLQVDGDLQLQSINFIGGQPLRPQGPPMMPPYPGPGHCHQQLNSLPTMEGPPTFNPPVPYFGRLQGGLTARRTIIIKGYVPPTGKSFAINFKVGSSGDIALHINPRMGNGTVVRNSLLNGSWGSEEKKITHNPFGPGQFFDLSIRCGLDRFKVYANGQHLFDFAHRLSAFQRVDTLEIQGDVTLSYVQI", "assay": "Solid phase binding-inhibition assay: gal4 binding to asialofetuin", "conditions": "read-out: I50 value"}, "[3]": {"molecular_target": "gal9N (N-terminal of gal9) (UniProt O00182)", "assay": "Solid phase binding-inhibition assay: gal9N binding to asialofetuin", "conditions": "read-out: I50 value"}, "[4]": {"tested_on": "activated pmel T cells on B16 melanoma cells", "assay": "B16 melanoma cell-associated apoptosis of activated pmel T cells", "type": "cell-based, mouse", "conditions": "B16 monolayer about 24 h; untreated about 53%; TFD100 3.5 nM, lactose 50 μM", "experimental": "To investigate if tumor-associated gal3 can induce tumor specific CD8 T cells, we used B16 melanoma-specific transgenic D90.1 CD8 T cells (pmel T cells) (40). After harvesting T cells from mouse spleen, cells were activated with a peptide (40), mixed with a monolayer of B16 melanoma cells and apoptosis was measured by Annexin V binding after gating with anti-CD8 antibodies."}}, "note": "Where two headings read alike, the source gives them in different places.", "data": [{"compound": "CC(=O)N[C@H]1C(O)O[C@H](CO)[C@@H](O[C@@H]2O[C@H](CO)[C@H](O)[C@H](O)[C@H]2O)[C@@H]1O", "note": "(some centres unmarked) [N-acetyllactosamine]", "values": [{"measurement": "Kd", "setting": "gal3 [1]", "result": 25, "unit": "µM"}]}, {"compound": "CC(=O)NC1C(O)OC(CO)C(O)C1OC1OC(CO)C(O)C(O)C1O", "note": "(centres unmarked) [TFD, Galβ1,3GalNAc]", "values": [{"measurement": "RIA, relative inhibitory activity compared to lactose (taken as 1)", "setting": "gal3 [2]; from I50 in μg/ml, Table 1", "result": 0.47}, {"measurement": "IC50", "setting": "gal3 [2]; gal3 binding to asialofetuin", "result": 200, "unit": "µM"}, {"measurement": "IC50", "setting": "gal3 [2]; inhibition of gal3 binding to asialofetuin, Table 1", "result": 151, "unit": "µM"}, {"measurement": "Kd", "setting": "gal3 [1]", "result": 636, "unit": "µM"}]}, {"compound": "gal3: purified recombinant galectin-3, used as inducer of angiogenesis and T cell apoptosis", "values": [{"measurement": "cells undergoing apoptosis", "setting": "MOLT-4 cells; gal3 5 μM, annexin V", "result": "~50", "unit": "%"}, {"measurement": "cell death of non-activated CD8+ T cells", "setting": "pmel T cells; gal3 up to 15 μM, same as cells alone", "result": "~22", "unit": "%"}, {"measurement": "apoptosis of activated CD8+ T cells", "setting": "pmel T cells; recombinant gal3 5 μM, CD8 alone ~61%", "result": "~76", "unit": "%"}, {"measurement": "cells death", "setting": "human CD8+ T cells; gal3 5 μM, flow cytometry", "result": "~54", "unit": "%"}, {"measurement": "gal3-mediated apoptosis", "setting": "Jurkat cells; gal3 5 μM", "result": "~34", "unit": "%"}, {"measurement": "enhancement of tube formation", "setting": "HUVEC", "result": "~25", "unit": "%"}]}, {"compound": "OC[C@H]1O[C@@H](O[C@H]2[C@H](O)[C@@H](O)C(O)O[C@@H]2CO)[C@H](O)[C@@H](O)[C@H]1O", "note": "(some centres unmarked) [Lactose]", "values": [{"measurement": "inhibition at 50 µM", "setting": "MOLT-4 cells; Homo sapiens, MOLT-4", "result": "~20", "unit": "%"}, {"measurement": "IC50", "setting": "gal4", "result": 10000, "unit": "µM"}, {"measurement": "IC50", "setting": "[3]", "result": 100, "unit": "µM"}, {"measurement": "inhibition at 50 µM", "setting": "human CD8+ T cells; Homo sapiens, T-cell", "result": "~67", "unit": "%"}, {"measurement": "apoptosis of T cells reduced to", "setting": "[4]", "result": 39, "unit": "%"}, {"measurement": "inhibition at 50 µM", "setting": "Jurkat cells; Homo sapiens, Jurkat", "result": "~30", "unit": "%"}]}]}
